Data set [1] addresses T1, CYP2E1 (Homo sapiens, UniProt P05181).
T1 construct: Pooled human liver microsomes (HLMs) were purchased from BD Biosciences; tissue BD Biosciences; host or cells: pooled human liver microsomes
The data set can be described thus: Time-dependent inhibition study of CYP2E1 in human liver microsomes. As to conditions: 20 μM pogostone, 0-30 min, 1 mg/mL HLMs. The format is in vitro ADME. Here is the method: (§1) The effect of incubation on the inhibitory effect of pogostone was evaluated by incubating for 0, 5, 10, 15, and 30 min at 37 °C. The concentration of pogostone in the time-dependent inhibition study was 20 μM with the 1 mg/mL HLMs. After incubation, an aliquot (20 μL) was transferred to another incubation tube (a final volume of 200 μL) containing an NADPH-generating system and probe substrates whose final concentrations were approximate to Km. Then, further incubations were performed to measure the residual activity. After being incubated for 10 and 30 min, the reactions were terminated by adding a 100 μL acetonitrile internal standard mix and then placed on ice; the corresponding metabolites were determined by HPLC.
Background: Microsomes from liver hold many membrane-bound enzymes, among them those of drug oxidation.

Data set [2] addresses T2, CYP3A4 (Homo sapiens, UniProt P08684).
T2 construct: Pooled human liver microsomes (HLMs) were purchased from BD Biosciences; tissue BD Biosciences; host or cells: pooled human liver microsomes
Nature of the data set: Inhibition of CYP3A4 (testosterone 6β-hydroxylation) in human liver microsomes. In kind it is in vitro ADME. Here is the method:
(§2) The effect of pogostone on the activity of CYP450s was investigated with probe reactions (summarized in Table 1) in HLMs in accordance with previous studies (Zhang et al. [2007], [2020]). All incubations were conducted in triplicate with a volume of 200 μL, containing 100 mM potassium phosphate buffer (pH 7.4), NADPH-generating system (1 mM NADP^+, 10 mM glucose-6-phosphate, 1 U/mL of glucose-6-phosphate dehydrogenase, and 4 mM MgCl2), corresponding probe substrates, HLM, and 100 μM pogostone or positive inhibitors. The concentrations of positive inhibitors were: 10 μM furafylline for CYP1A2, 1 μM ketoconazole for CYP3A4, 10 μM tranylcypromine for CYP2A6, 50 μM clomethiazole for CYP2E1, 10 μM quinidine for CYP2D6, 10 μM sulphaphenazole for CYP2C9, 50 μM tranylcypromine for CYP2C19, and 5 μM montelukast for CYP2C8.
(§3) A 3 min preincubation was performed at 37 °C before the reactions were initiated by the addition of the NADPH-generating system. After the incubation, 100 μL acetonitrile or 10% trichloroacetic (for CYP2A6) was added to terminate the reactions and placed on ice. The mixture was centrifuged at 12,000 rpm for 10 min, and an aliquot (50 μL) of supernatant was transferred for corresponding metabolites analysis with HPLC.
(§4) The effect of pogostone on the activity of CYP450s was first investigated with 100 μM pogostone in HLMs. Then, the CYPs, of which the activity was inhibited by pogostone were incubated with 0, 2.5, 5, 10, 25, 50, and 100 μM pogostone and different probe substrates (20, 40, 60, and 100 μM testosterone for CYP3A4, 5, 10, 15, and 20 μM diclofenac for CYP2C9, or 25, 50, 150, and 250 μM chlorzoxazone for CYP2E1) to obtained the corresponding kinetic parameters, such as IC50 and Ki values.
(§5) The Lineweaver-Burk plots were used to obtain enzyme kinetic parameters by the least-squares linear regression of the inverse substrate concentration versus the inverse velocity. Inhibition data from the experiments that were conducted using multiple compound concentrations were represented by Dixon plots, and inhibition constant (Ki) values were calculated using non-linear regression according to the following equation: V=(VmaxS)/(Km(1+I/Ki)+S) where I is the concentration of the compound, Ki is the inhibition constant, S is the concentration of the substrate and Km is the substrate concentration at half the maximum velocity (Vmax) of the reaction. The mechanism of the inhibition was inspected using the Lineweaver–Burk plots and the enzyme inhibition models. The data comparison was performed using the Student’s t-test and performed using IBM SPSS statistics 20 (SPSS Inc., Chicago, IL, USA).

In data set [3] the target is T3, CYP2C9 (Homo sapiens, UniProt P11712).
T3 construct: Pooled human liver microsomes (HLMs) were purchased from BD Biosciences; tissue BD Biosciences; host or cells: pooled human liver microsomes
Nature of the data set: Inhibition of CYP2C9 (diclofenac 4′-hydroxylation) in human liver microsomes. The format is in vitro ADME. Here is the method:
as §2, §3, §4, §5

Data set [4] deals with T1, CYP2E1. The data set can be described thus: Inhibition of CYP2E1 (chlorzoxazone 6-hydroxylation) in human liver microsomes. In kind it is in vitro ADME. Here is the method: as §2, §3, §4, §5
On the set-up of data set [5]: method as in Chen et al. [2013]. As to conditions: rats, oral administration, 5 mg/kg pogostone; ref Chen et al. [2013]; cited from earlier work.
Data set [6] has as its target T2, CYP3A4. The data set can be described thus: Time-dependent inhibition study of CYP3A4 in human liver microsomes. The format is in vitro ADME. The method, then:
as §1
Further experiments were performed to quantify the time-dependent inhibition by the KI and Kinact values. The incubation was conducted with a higher substrate concentration, which was about 4-fold to Km and 0, 2, 5, 10, 20, and 50 μM pogostone for 0, 5, 10, 15, and 30 min. A two-step incubation scheme was performed as described above.

The target in data set [7] is T3, CYP2C9. The data set can be described thus: Time-dependent inhibition study of CYP2C9 in human liver microsomes. The format is in vitro ADME. As to conditions: 20 μM pogostone, 0-30 min, 1 mg/mL HLMs. Here is the method:
as §1

Where [8] appears, read: 100 μM pogostone, HLMs, p < 0.05.
Where [9] appears, read: HLMs, 0-50 μM pogostone, 0-30 min preincubation, substrate about 4-fold Km.

T1 sequence (P05181 whole entry): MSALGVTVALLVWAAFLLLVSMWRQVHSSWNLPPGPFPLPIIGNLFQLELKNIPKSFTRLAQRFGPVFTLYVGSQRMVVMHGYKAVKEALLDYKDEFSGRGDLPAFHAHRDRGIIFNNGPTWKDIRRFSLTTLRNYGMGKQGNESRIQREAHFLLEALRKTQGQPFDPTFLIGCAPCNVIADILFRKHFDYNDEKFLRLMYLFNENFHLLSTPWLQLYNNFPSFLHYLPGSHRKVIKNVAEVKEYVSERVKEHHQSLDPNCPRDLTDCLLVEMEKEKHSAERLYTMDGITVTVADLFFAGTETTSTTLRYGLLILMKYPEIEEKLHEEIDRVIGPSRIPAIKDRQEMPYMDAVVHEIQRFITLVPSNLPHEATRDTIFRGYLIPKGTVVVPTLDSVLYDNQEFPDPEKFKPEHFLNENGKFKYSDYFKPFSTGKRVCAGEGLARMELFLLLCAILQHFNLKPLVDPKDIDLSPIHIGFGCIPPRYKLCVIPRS
T2 sequence (P08684 whole entry): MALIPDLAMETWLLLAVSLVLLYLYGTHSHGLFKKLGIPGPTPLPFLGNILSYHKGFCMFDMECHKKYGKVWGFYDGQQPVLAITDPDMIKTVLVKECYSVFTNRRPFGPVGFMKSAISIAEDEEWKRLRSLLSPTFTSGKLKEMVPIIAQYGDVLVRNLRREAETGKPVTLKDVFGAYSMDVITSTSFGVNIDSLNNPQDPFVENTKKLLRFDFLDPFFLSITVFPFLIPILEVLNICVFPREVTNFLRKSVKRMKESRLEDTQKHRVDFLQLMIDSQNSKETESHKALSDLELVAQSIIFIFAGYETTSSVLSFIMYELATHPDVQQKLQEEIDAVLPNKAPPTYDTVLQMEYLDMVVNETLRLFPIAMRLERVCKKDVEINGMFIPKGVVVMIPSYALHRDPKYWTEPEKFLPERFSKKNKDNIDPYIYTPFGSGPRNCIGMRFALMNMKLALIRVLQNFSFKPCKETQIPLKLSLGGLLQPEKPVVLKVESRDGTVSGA
T3 sequence (P11712 whole entry): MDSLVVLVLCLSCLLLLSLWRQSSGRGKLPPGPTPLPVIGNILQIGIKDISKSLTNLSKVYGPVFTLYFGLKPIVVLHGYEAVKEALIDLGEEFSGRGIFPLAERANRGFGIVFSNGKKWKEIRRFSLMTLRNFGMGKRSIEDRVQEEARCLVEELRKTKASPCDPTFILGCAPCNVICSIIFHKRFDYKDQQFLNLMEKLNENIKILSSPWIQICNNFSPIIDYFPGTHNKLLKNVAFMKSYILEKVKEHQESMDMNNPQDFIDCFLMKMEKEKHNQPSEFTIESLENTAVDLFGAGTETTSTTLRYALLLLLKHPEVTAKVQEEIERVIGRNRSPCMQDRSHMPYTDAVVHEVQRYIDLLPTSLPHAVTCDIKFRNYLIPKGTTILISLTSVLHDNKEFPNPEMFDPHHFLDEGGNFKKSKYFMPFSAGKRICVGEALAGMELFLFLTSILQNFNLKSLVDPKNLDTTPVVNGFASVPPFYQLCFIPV

One may read the IC50 as the midpoint of a concentration-inhibition curve. The low end stands for inhibition by little substance, the high end for a need for much substance. As usually defined, the Ki is the equilibrium dissociation constant of an inhibitor or competing ligand from its target. A high value points to a looser hold on the target. As a reminder, the Cmax is the highest concentration seen after dosing. `Cc1cc(O)c(C(=O)CCC(C)C)c(=O)o1` [pogostone, Pogostone]: at CYP2E1 [1], the “Effect of incubation time on inhibition of CYP2E1” value is “no significant effect”. In addition, the “Activity of CYP3A4 compared with negative control” value at CYP3A4 [2] (setting [8]) is “significantly inhibited”. For the same compound, the IC50 at CYP3A4 [2] (HLMs, 0-100 μM pogostone, testosterone substrate) was 11.4 µM; on CYP2C9 [3] (HLMs, 0-100 μM pogostone, diclofenac substrate), 12.1 µM; at CYP2E1 [4] (HLMs, 0-100 μM pogostone, chlorzoxazone substrate) it was 14.9 µM. The Ki at CYP3A4 [2] (HLMs, Lineweaver-Burk, 20-100 μM testosterone) came out at 5.69 µM; at CYP2C9 [3] (HLMs, Lineweaver-Burk, diclofenac), 6.46 µM; at CYP2E1 [4] (HLMs, Lineweaver-Burk, 25-250 μM chlorzoxazone), 7.67 µM. Also, the “Type of inhibition of CYP3A4” value at CYP3A4 [2] (Lineweaver-Burk analysis) was “non-competitive”. Moreover, the “Activity of CYP2C9 compared with negative control” value on CYP2C9 [3] (setting [8]) is “significantly inhibited”. In addition, the “Type of inhibition of CYP2C9” value on CYP2C9 [3] (Lineweaver-Burk analysis) is reported as “competitive”. The “Activity of CYP2E1 compared with negative control” value on CYP2E1 [4] (setting [8]) is “significantly inhibited”. At CYP2E1 [4] (Lineweaver-Burk analysis), the “Type of inhibition of CYP2E1” value is on record as “competitive”. Besides, the Cmax in data set [5] is 28.99 µg/mL. Also, the “Effect of incubation time on inhibition of CYP3A4” value at CYP3A4 [6] (20 μM pogostone, 0-30 min, 1 mg/mL HLMs) is reported as “time-dependent”. This compound yielded a KI value of CYP3A4 (time-dependent inhibition) at CYP3A4 [6] (setting [9]) of 5.86 µM. Besides, the “Kinact value of CYP3A4 (time-dependent inhibition)” value on CYP3A4 [6] (setting [9]) came to 0.056 min⁻¹. For the same compound, at CYP2C9 [7], the “Effect of incubation time on inhibition of CYP2C9” value was “no significant effect”.
